Reference: the supplement of paper PMC11061612

How the values were obtained:
[1] = system: NY (Osteosarcoma); assay: Bliss excess, mean over the matrix (fraction); higher = more synergy
Method in brief: (§1)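 Cell lines grown in DMEM/F12 or RPMI with 10% FBS were plated in 1536-well plates and held 24 hours at 37°C, 5% CO2 before 72 hours of exposure to two-drug dose matrices, with DMSO typically at 0.2%. CellTiter-Glo 2.0 luminescence gave viability, which was converted to inhibition. Vehicle wells were set to 0 and blank wells to 1. Combination Emax is the second-highest inhibition in the matrix, and Bliss excess is the observed combination effect minus the expected EA + EB − EA·EB, where EA and EB are the single-agent effects.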

[2] = system: U-2-OS (Osteosarcoma); assay: as above
Method in brief: as §1

[3] = system: KARPAS-422 (B-Cell Non-Hodgkin's Lymphoma); assay: as above
Method in brief: as §1

[4] = system: PANC-10-05 (Pancreatic Carcinoma); assay: as above
Method in brief: as §1

[5] = system: NCI-H64 (Small Cell Lung Carcinoma); assay: as above
Method in brief: as §1

[6] = system: IGR-37 (Melanoma); assay: as above
Method in brief: as §1

[7] = system: NCI-H1666 (Lung Adenocarcinoma); assay: as above
Method in brief: as §1

[8] = system: CAPAN-2 (Pancreatic Carcinoma); assay: as above
Method in brief: as §1

[9] = system: BICR22 (Oral Cavity Carcinoma); assay: as above
Method in brief: as §1

[10] = system: ONS-76 (Other Solid Carcinomas); assay: as above
Method in brief: as §1

[11] = system: TT (Thyroid Gland Carcinoma); assay: as above
Method in brief: as §1

[12] = system: COLO-320-HSR (Colorectal Carcinoma); assay: as above
Method in brief: as §1

[13] = system: ECC10 (Gastric Carcinoma); assay: as above
Method in brief: as §1

[14] = system: NCI-H1581 (Non-Small Cell Lung Carcinoma); assay: as above
Method in brief: as §1

[15] = system: FU97 (Gastric Carcinoma); assay: as above
Method in brief: as §1

[16] = system: NCI-H2066 (Squamous Cell Lung Carcinoma); assay: as above
Method in brief: as §1

[17] = system: VCaP (Prostate Carcinoma); assay: as above
Method in brief: as §1

[18] = system: CCK-81 (Colorectal Carcinoma); assay: as above
Method in brief: as §1

[19] = system: NY (Osteosarcoma); assay: combination Emax (second highest fraction inhibited in the dose matrix, 72 h); higher = more inhibition; extreme values may be limits of the assay
Method in brief: as §1

[20] = system: U-2-OS (Osteosarcoma); assay: as above
Method in brief: as §1

[21] = system: KARPAS-422 (B-Cell Non-Hodgkin's Lymphoma); assay: as above
Method in brief: as §1

[22] = system: PANC-10-05 (Pancreatic Carcinoma); assay: as above
Method in brief: as §1

[23] = system: NCI-H64 (Small Cell Lung Carcinoma); assay: as above
Method in brief: as §1

[24] = system: IGR-37 (Melanoma); assay: as above
Method in brief: as §1

[25] = system: NCI-H1666 (Lung Adenocarcinoma); assay: as above
Method in brief: as §1

[26] = system: CAPAN-2 (Pancreatic Carcinoma); assay: as above
Method in brief: as §1

[27] = system: BICR22 (Oral Cavity Carcinoma); assay: as above
Method in brief: as §1

[28] = system: ONS-76 (Other Solid Carcinomas); assay: as above
Method in brief: as §1

[29] = system: TT (Thyroid Gland Carcinoma); assay: as above
Method in brief: as §1

[30] = system: COLO-320-HSR (Colorectal Carcinoma); assay: as above
Method in brief: as §1

[31] = system: ECC10 (Gastric Carcinoma); assay: as above
Method in brief: as §1

[32] = system: NCI-H1581 (Non-Small Cell Lung Carcinoma); assay: as above
Method in brief: as §1

[33] = system: FU97 (Gastric Carcinoma); assay: as above
Method in brief: as §1

[34] = system: NCI-H2066 (Squamous Cell Lung Carcinoma); assay: as above
Method in brief: as §1

[35] = system: VCaP (Prostate Carcinoma); assay: as above
Method in brief: as §1

[36] = system: CCK-81 (Colorectal Carcinoma); assay: as above
Method in brief: as §1
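Wherever Bliss excess, mean over the matrix is given: after 72 h of two-drug dosing.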

Row | Structure (SMILES) | Bliss excess [1] | Bliss excess [2] | Bliss excess [3] | Bliss excess [4] | Bliss excess [5] | Bliss excess [6] | Bliss excess [7] | Bliss excess [8] | Bliss excess [9] | Bliss excess [10] | Bliss excess [11] | Bliss excess [12] | Bliss excess [13] | Bliss excess [14] | Bliss excess [15] | Bliss excess [16] | Bliss excess [17] | Bliss excess [18] | combination Emax [19] | combination Emax [20] | combination Emax [21] | combination Emax [22] | combination Emax [23] | combination Emax [24] | combination Emax [25] | combination Emax [26] | combination Emax [27] | combination Emax [28] | combination Emax [29] | combination Emax [30] | combination Emax [31] | combination Emax [32] | combination Emax [33] | combination Emax [34] | combination Emax [35] | combination Emax [36]
1 | Cc1c2c(nn1C)CSCc1cc(n(C)n1)CSc1cc(c3ccccc3c1)OCCCc1c(C(=O)O)n(C)c3c-2c(Cl)ccc13 [AZD5991] + CC(=O)O[C@H]1C(=O)[C@@]2(C)[C@H]([C@H](OC(=O)c3ccccc3)[C@]3(O)C[C@H](OC(=O)[C@H](O)[C@@H](NC(=O)c4ccccc4)c4ccccc4)C(C)=C1C3(C)C)[C@]1(OC(C)=O)CO[C@@H]1C[C@@H]2O [Paclitaxel] (first compound max 1 µM, 7x7, partner max 3 µM) | 0.0268 | -0.0291 | 0.0084 | 0.0368 | 0.0573 | 0.0439 | -0.0239 | 0.0086 | 0.0021 | -0.0383 | -0.0423 | -0.0443 | -0.0567 | 0.0114 | -0.0142 | -0.027 | 0.0074 | -0.0396 | 0.963 | 0.735 | 0.996 | 0.569 | 0.719 | 0.885 | 0.563 | 0.144 | 0.98 | 0.644 | 0.26 | 0.991 | 0.942 | 1 | 0.257 | 0.589 | 0.977 | 0.989
2 | Cc1c2c(nn1C)CSCc1cc(n(C)n1)CSc1cc(c3ccccc3c1)OCCCc1c(C(=O)O)n(C)c3c-2c(Cl)ccc13 [AZD5991] + CS(=O)(=O)CCNCc1ccc(-c2ccc3ncnc(Nc4ccc(OCc5cccc(F)c5)c(Cl)c4)c3c2)o1 [Lapatinib] (first compound max 1 µM, 7x7, partner max 10 µM) | -0.0523 | -0.0345 | -0.0425 | -0.0585 | -0.0332 | -0.0622 | 0.0641 | -0.0087 | 0.0948 | -0.0232 | 0.0128 | 0.0422 | 0.0088 | -0.0138 | -0.0583 | -0.0195 | -0.0052 | 0.055 | 0.564 | 0.197 | 0.965 | 0.474 | 0.111 | 0.36 | 0.942 | 0.186 | 0.969 | 0.294 | 0.237 | 1 | 0.975 | 0.968 | 0.906 | 0.426 | 0.96 | 1
3 | Cc1c2c(nn1C)CSCc1cc(n(C)n1)CSc1cc(c3ccccc3c1)OCCCc1c(C(=O)O)n(C)c3c-2c(Cl)ccc13 [AZD5991] + Nc1ccn([C@@H]2O[C@H](CO)[C@@H](O)C2(F)F)c(=O)n1 [Gemcitabine] (first compound max 1 µM, 7x7, partner max 0.3 µM) | -0.0564 | -0.0017 | -0.0219 | -0.0263 | 0.0292 | 0.011 | -0.0299 | -0.035 | -0.0254 | 0.0088 | -0.0048 | -0.0386 | 0.0593 | 0.0459 | 0.0193 | -0.0415 | 0.0667 | 0.0013 | 0.88 | 0.387 | 0.979 | 0.472 | 0.37 | 0.79 | 0.473 | 0.101 | 0.957 | 0.499 | 0.405 | 0.944 | 0.935 | 0.998 | 0.232 | 0.184 | 0.977 | 0.942
4 | C[C@@H]1COCCN1c1cc(C2([S@](C)(=N)=O)CC2)nc(-c2ccnc3[nH]ccc23)n1 [AZD6738] + C1CC(C1)(C(=O)[O-])C(=O)[O-].N.N.[Pt+2] [Carboplatin] (first compound max 10 µM, 7x7, partner max 10 µM) | -0.0504 | -0.0234 | -0.0683 | -0.0611 | -0.0431 | -0.0539 | -0.0814 | -0.0168 | -0.0297 | -0.0512 | -0.0108 | -0.036 | -0.0097 | -0.0399 | -0.0215 | -0.0715 | -0.0644 | -0.0429 | 0.568 | 0.511 | 0.434 | 0.477 | 0.793 | 0.616 | 0.304 | 0.159 | 0.804 | 0.814 | 0.442 | 0.495 | 0.397 | 0.281 | 0.349 | 0.412 | 0.48 | 0.886
5 | Cc1cc2ncnn2cc1Nc1ncc2c(n1)n(C1CCOCC1)c(=O)n2C [AZD7648] + COc1cc([C@@H]2c3cc4c(cc3[C@@H](O[C@@H]3O[C@@H]5CO[C@@H](C)O[C@H]5[C@H](O)[C@H]3O)[C@H]3COC(=O)[C@H]23)OCO4)cc(OC)c1O [Etoposide] (first compound max 10 µM, 7x7, partner max 10 µM) | 0.0475 | 0.0528 | -0.0391 | 0.0148 | -0.0142 | 0.0178 | 0.0131 | 0.0103 | 0.13 | 0.0815 | 0.0627 | 0.0573 | 0.108 | 0.0368 | -0.0016 | -0.03 | 0.0464 | 0.093 | 0.654 | 0.647 | 0.884 | 0.636 | 0.316 | 0.703 | 0.401 | 0.186 | 0.856 | 0.748 | 0.431 | 0.606 | 0.913 | 0.787 | 0.298 | 0.332 | 0.579 | 0.565
6 | C[C@@H](Nc1cc(F)cc(F)c1)c1cc(C(=O)N(C)C)cc2c(=O)cc(N3CCOCC3)oc12 [AZD8186] + C1CN(CCC1(C(=O)N[C@@H](CCO)C2=CC=C(C=C2)Cl)N)C3=NC=NC4=C3C=CN4 [AZD5363] (first compound max 10 µM, 7x7, partner max 10 µM) | 0.0425 | -0.0324 | -0.106 | -0.0847 | 0.0116 | 0.0334 | -0.0707 | -0.0305 | 0.0421 | -0.028 | -0.0413 | 0.0159 | 0.0141 | -0.0207 | -0.0072 | -0.0364 | -0.0177 | -0.0118 | 0.325 | 0.279 | 0.628 | 0.436 | 0.277 | 0.44 | 0.406 | 0.285 | 0.308 | 0.312 | 0.415 | 0.184 | 0.276 | 0.101 | 0.374 | 0.513 | 0.443 | 0.266
7 | C[C@@H](Nc1cc(F)cc(F)c1)c1cc(C(=O)N(C)C)cc2c(=O)cc(N3CCOCC3)oc12 [AZD8186] + CC(=O)c1c(C)c2cnc(Nc3ccc(N4CCNCC4)cn3)nc2n(C2CCCC2)c1=O [Palbociclib] (first compound max 10 µM, 7x7, partner max 10 µM) | 0.0895 | 0.0498 | 0.018 | -0.0689 | 0.0127 | 0.0795 | -0.0433 | 0.0182 | -0.0275 | 0.0763 | 0.0582 | 0.0312 | 0.08 | 0.085 | 0.0755 | -0.0299 | 0.0706 | 0.0824 | 0.408 | 0.391 | 0.707 | 0.383 | 0.469 | 0.464 | 0.454 | 0.213 | 0.192 | 0.424 | 0.416 | 0.382 | 0.661 | 0.651 | 0.386 | 0.319 | 0.371 | 0.418
